Assay results from patent US7998978B2 (Pfizer Inc., priority 2006, dated 2011).
pKi: −log10 of the molar value.

Molecular target: T1, JNK1α1 (Homo sapiens, UniProt P45983)
T1 construct: catalytic domain containing amino acids 1-364 and N-terminal hexahistidine tag; hexahistidine (His6) (N); made in house; host or cells: E. coli BL21 (DE3)
Experiment: Coupled spectrophotometric (PK/LDH) JNK1α1 assay: % inhibition and Ki determination
Assay type: biochemical
Conditions: for pKi: JNK-1; for inhibition at 10 µM / inhibition at 1 µM: read-out: % Inhibition JNK-1
Outline: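 Initial rates were taken from the absorbance decrease at 340 nm at 30° C. Ki was fitted with a tight-binding model over 11 concentrations (top 100 μM); single-point inhibition was tested at 1 or 10 μM.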

T1 sequence (P45983 1-364): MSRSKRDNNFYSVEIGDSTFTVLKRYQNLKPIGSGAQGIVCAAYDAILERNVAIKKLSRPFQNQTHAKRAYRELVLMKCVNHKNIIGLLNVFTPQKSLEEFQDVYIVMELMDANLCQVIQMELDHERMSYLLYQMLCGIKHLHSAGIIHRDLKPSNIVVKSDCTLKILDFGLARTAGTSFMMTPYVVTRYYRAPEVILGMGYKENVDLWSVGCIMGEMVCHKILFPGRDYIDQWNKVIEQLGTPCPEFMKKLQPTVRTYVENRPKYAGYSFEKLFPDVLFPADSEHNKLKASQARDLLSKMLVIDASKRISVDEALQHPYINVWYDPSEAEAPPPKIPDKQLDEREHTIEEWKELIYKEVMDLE

SMILES: CC(C)(CO)NC(=O)c1ccc2cnc(N[C@H]3CC[C@H](O)CC3)nc2c1 [Example 352, 2-[(trans-4-hydroxycyclohexyl)amino]-N-(2-hydroxy-1,1-dimethylethyl)quinazoline-7-carboxamide]
- pKi: 5.96

SMILES: CC(C)C[C@@H](CO)NC(=O)c1ccc2cnc(NC3CCCC3)nc2c1 [Example 390, 2-(cyclopentylamino)-N-[(1S)-1-(hydroxymethyl)-3-methylbutyl]quinazoline-7-carboxamide]
- pKi: 6.48

SMILES: CCC[C@@H](CO)NC(=O)c1ccc2cnc(NC3CCCC3)nc2c1 [Example 387, 2-(cyclopentylamino)-N-[(1S)-1-(hydroxymethyl)butyl]quinazoline-7-carboxamide]
- pKi: 6.53

SMILES: O=C(Cn1nc(C(F)(F)F)c2c1CCCC2)Nc1cc2cc(-c3cn[nH]c3)ccc2cn1 [Example 37, N-[6-(1H-pyrazol-4-yl)isoquinolin-3-yl]-2-[3-(trifluoromethyl)-4,5,6,7-tetrahydro-1H-indazol-1-yl]acetamide]
- pKi: 8.70

SMILES: O=C(Nc1cc2cc(-c3cn[nH]c3)ccc2cn1)C1NCc2ccccc21 (stereo not shown) [Example 14, N-[6-(1H-pyrazol-4-yl)isoquinolin-3-yl]isoindoline-1-carboxamide]
- pKi: < 7.30

SMILES: Oc1ccc2cnc(N[C@H]3CC[C@H](O)CC3)nc2c1 [Example 146, 2-[(trans-4-hydroxycyclohexyl)amino]quinazolin-7-ol]
- pKi: 6.75

SMILES: COc1ccc(CNc2cc3cc(-c4cn[nH]c4)ccc3cn2)cn1 [Example 231, N-[(6-methoxypyridin-3-yl)methyl]-6-(1H-pyrazol-4-yl)isoquinolin-3-amine]
- inhibition at 10 µM: 43%

SMILES: COc1ccccc1CC(=O)Nc1cc2cc(-c3cn[nH]c3)ccc2cn1 [Example 53, 2-(2-methoxyphenyl)-N-[6-(1H-pyrazol-4-yl)isoquinolin-3-yl]acetamide]
- pKi: 7.68

SMILES: Cc1cc(C)nc(CNC(=O)c2cccc3cnc(N[C@H]4CC[C@H](O)CC4)nc23)n1 [Example 512, N-[(4,6-dimethylpyrimidin-2-yl)methyl]-2-[(trans-4-hydroxycyclohexyl)amino]quinazoline-8-carboxamide]
- inhibition at 10 µM: 31%

SMILES: CN1CCC(Oc2ccc3cnc(N[C@H]4CC[C@H](O)CC4)nc3c2)CC1 [Example 271, trans-4-({7-[(1-methylpiperidin-4-yl)oxy]quinazolin-2-yl}amino)cyclohexanol]
- inhibition at 1 µM: 41%

SMILES: O=C(NCCN1CCCC1=O)c1ccc2cnc(N[C@H]3CC[C@H](O)CC3)nc2c1 [Example 367, 2-[(trans-4-hydroxycyclohexyl)amino]-N-[2-(2-oxopyrrolidin-1-yl)ethyl]quinazoline-7-carboxamide]
- pKi: 5.66

SMILES: CCN[C@H]1CC[C@H](Nc2ncc3cccc(OC4CCOC4)c3n2)CC1 (stereo partly drawn) [Example 192, trans-N-ethyl-N′-[8-(tetrahydrofuran-3-yloxy)quinazolin-2-yl]cyclohexane-1,4-diamine]
- pKi: 5.95

SMILES: O=C(NCC1CCCOC1)c1ccc2cnc(N[C@H]3CC[C@H](O)CC3)nc2c1 (stereo partly drawn) [Example 92, 2-[(trans-4-hydroxycyclohexyl)amino]-N-(tetrahydro-2H-pyran-3-ylmethyl)quinazoline-7-carboxamide]
- pKi: 6.42

SMILES: CC(=O)N[C@H]1CC[C@H](Nc2ncc3cccc(OC4CCOC4)c3n2)CC1 (stereo partly drawn) [Example 184, N-(trans-4-{[8-(tetrahydrofuran-3-yloxy)quinazolin-2-yl]amino}cyclohexyl)acetamide]
- pKi: 6.17

SMILES: CN(C)C(=O)c1ccc2cnc(N[C@H]3CC[C@H](O)CC3)nc2c1 [Example 59, 2-[(trans-4-hydroxycyclohexyl)amino]-N,N-dimethylquinazoline-7-carboxamide]
- pKi: 5.36

SMILES: O=C(CNC(=O)c1ccccc1)Nc1cc2cc(-c3cn[nH]c3)ccc2cn1 [Example 9, N-(2-oxo-2-{[6-(1H-pyrazol-4-yl)isoquinolin-3-yl]amino)ethyl)benzamide]
- pKi: 7.77

SMILES: O=C(NCCN1CCNC1=O)c1cccc2cnc(N[C@H]3CC[C@H](O)CC3)nc12 [Example 476, 2-[(trans-4-hydroxycyclohexyl)amino]-N-[2-(2-oxoimidazolidin-1-yl)ethyl]quinazoline-8-carboxamide]
- inhibition at 1 µM: 10%

SMILES: O=C(N[C@H](CO)CC1CCCCC1)c1ccc2cnc(NC3CCC3)nc2c1 [Example 428, 2-(cyclobutylamino)-N-[(1S)-2-cyclohexyl-1-(hydroxymethyl)ethyl]quinazoline-7-carboxamide]
- inhibition at 1 µM: 17%

SMILES: CN1CCCC(COc2cccc3cnc(N[C@H]4CC[C@H](O)CC4)nc23)C1 (stereo partly drawn) [Example 253, trans-4-({8-[(1-methylpiperidin-3-yl)methoxy]quinazolin-2-yl}amino)cyclohexanol]
- inhibition at 10 µM: 38%

SMILES: O=C(N[C@H]1CC[C@@H](CO)CC1)c1ccc2cnc(N[C@H]3CC[C@H](O)CC3)nc2c1 [Example 336, 2-[(trans-4-hydroxycyclohexyl)amino]-N-[cis-4-(hydroxymethyl)cyclohexyl]quinazoline-7-carboxamide]
- pKi: 6.29

SMILES: CC(C)Nc1ncc2ccc(C(=O)NC(C)(C)CO)cc2n1 [Example 440, N-(2-hydroxy-1,1-dimethylethyl)-2-(isopropylamino)quinazoline-7-carboxamide]
- inhibition at 10 µM: 48%

SMILES: O=C(NC1(CO)CCCC1)c1cccc2cnc(N[C@H]3CC[C@H](O)CC3)nc12 [Example 454, 2-[(trans-4-hydroxycyclohexyl)amino]-N-[1-(hydroxymethyl)cyclopentyl]quinazoline-8-carboxamide]
- pKi: 6.66

SMILES: O=C(N[C@H](CO)CC1CCCCC1)c1ccc2cnc(NC3CCCC3)nc2c1 [Example 419, N-[(1S)-2-cyclohexyl-1-(hydroxymethyl)ethyl]-2-(cyclopentylamino)quinazoline-7-carboxamide]
- pKi: 5.52

SMILES: Cc1cc(C)n(CC(C)NC(=O)c2cccc3cnc(N[C@H]4CC[C@H](O)CC4)nc23)n1 (stereo partly drawn) [Example 483, N-[2-(3,5-dimethyl-1H-pyrazol-1-yl)-1-methylethyl]-2-[(trans-4-hydroxycyclohexyl)amino]quinazoline-8-carboxamide]
- inhibition at 10 µM: 71%

SMILES: Cc1oc(-c2ccccc2)nc1CC(=O)Nc1cc2cc(-c3cn[nH]c3)ccc2cn1 [Example 51, 2-(5-methyl-2-phenyl-1,3-oxazal-4-yl)-N-[6-(1H-pyrazol-4-yl)isoquinolin-3-yl]acetamide]
- pKi: 8.10

SMILES: O=C(Nc1cc2cc(-c3cn[nH]c3)ccc2cn1)[C@H]1C[C@@H]1c1ccccc1 [Example 54, (1S,2S)-2-phenyl-N-[6-(1H-pyrazol-4-yl)isoquinolin-3-yl]cyclopropanecarboxamide]
- pKi: 8.10

SMILES: O[C@H]1CC[C@H](Nc2ncc3ccc(OC[C@@H]4CCCN5CCCC[C@H]45)cc3n2)CC1 [Example 283, trans-4-({7-[(1R,9aR)-octahydro-2H-quinolizin-1-ylmethoxy]quinazolin-2-yl}amino)cyclohexanol]
- inhibition at 1 µM: 33%

SMILES: O=C(NCCN1CCOCC1)c1ccc2cnc(N[C@H]3CC[C@H](O)CC3)nc2c1 [Example 61, 2-[(trans-4-hydroxycyclohexyl)amino]-N-(2-morpholin-4-ylethyl)quinazoline-7-carboxamide]
- pKi: 6.28

SMILES: COc1ccc(CCC(=O)Nc2cc3cc(-c4cn[nH]c4)ccc3cn2)cc1 [Example 20, 3-(4-methoxyphenyl)-N-[6-(1H-pyrazol-4-yl)isoquinolin-3-yl]propanamide]
- pKi: 7.36

SMILES: CC(C)C(=O)Nc1cc2cc(-c3cn[nH]c3)ccc2cn1 [Example 16, 2-methyl-N-[6-(1H-pyrazol-4-yl)isoquinolin-3-yl]propanamide]
- pKi: 7.51

SMILES: O=C(CCc1cccc(C(F)(F)F)c1)Nc1cc2cc(-c3cn[nH]c3)ccc2cn1 [Example 42, N-[6-(1H-pyrazol-4-yl)isoquinolin-3-yl]-3-[3-(trifluoromethyl)phenyl]propanamide]
- pKi: 8.30

SMILES: C[C@@H](CO)NC(=O)c1cccc2cnc(N[C@H]3CC[C@H](O)CC3)nc12 [Example 122, 2-[(trans-4-hydroxycyclohexyl)amino]-N-[(1S)-2-hydroxy-1-methylethyl]quinazoline-8-carboxamide]
- pKi: 7.09

SMILES: CC[C@@H](CO)NC(=O)c1ccc2cnc(NC3CCCCC3)nc2c1 [Example 388, 2-(cyctohexylamino)-N-[(1S)-1-(hydroxymethyl)propyl]quinazoline-7-carboxamide]
- pKi: 6.52

SMILES: CCN1CCC(Oc2ccc3cnc(N[C@H]4CC[C@H](O)CC4)nc3c2)C1 (stereo partly drawn) [Example 278, trans-4-({7-[(1-ethylpyrrolidin-3-yl)oxy]quinazolin-2-yl}amino)cyclohexanol]
- inhibition at 1 µM: 27%

SMILES: Cc1nccn1CCNC(=O)c1cccc2cnc(N[C@H]3CC[C@H](O)CC3)nc12 [Example 485, 2-[(trans-4-hydroxycyclohexyl)amino]-N-[2-(2-methyl-1H-imidazol-1-yl)ethyl]quinazoline-8-carboxamide]
- inhibition at 10 µM: 72%

SMILES: c1cc(CNc2cc3cc(-c4cn[nH]c4)ccc3cn2)cc(-n2cccn2)c1 [Example 224, 6-(1H-pyrazol-4-yl)-N-[3-(1H-pyrazol-1-yl)benzyl]isoquinolin-3-amine]
- pKi: 5.47

SMILES: O=C1CC[C@@H](COc2ccc3cnc(N[C@H]4CC[C@H](O)CC4)nc3c2)N1 [Example 280, (5S)-5-[({2-[(trans-4-hydroxycyclohexyl)amino]quinazolin-7-yl}oxy)methyl]pyrrolidin-2-one]
- inhibition at 1 µM: 37%

SMILES: O=C(N[C@H](CO)Cc1ccccc1)c1ccc2cnc(NC3CCCCC3)nc2c1 [Example 395, N-[(1S)-1-benzyl-2-hydroxyethyl]-2-(cyclohexylamino)quinazoline-7-carboxamide]
- pKi: 6.37

SMILES: O=C(N[C@H](CO)c1ccccc1)c1ccc2cnc(NC3CCCC3)nc2c1 [Example 384, 2-(cyclopentylamino)-N-[(1S)-2-hydroxy-1-phenylethyl]quinazoline-7-carboxamide]
- pKi: 6.59

SMILES: O=C(N[C@H](CO)c1ccccc1)c1ccc2cnc(N[C@H]3CC[C@H](O)CC3)nc2c1 [Example 372, 2-[(trans-4-hydroxycyclohexyl)amino]-N-[(1S)-2-hydroxy-1-phenylethyl]quinazoline-7-carboxamide]
- pKi: 7.13
